In patent EP4692090A1 (Shanghai Fosun Pharmaceutical (Group) Co., Ltd., priority 2023, dated 2024):
Like-named read-outs stand apart in the source and are kept apart here.

Key:
[1] = biological target: T1, ATR kinase (Homo sapiens, UniProt Q13535); experiment: Inhibitory effect on ATR kinase activity (Caliper mobility shift, FAM-labeled RAD17 peptide substrate); type: biochemical; settings: 1 nM ATR kinase (Eurofins), 28°C for 3 hours, maximum concentration 1 µM, 10 concentrations, read-out: ATR kinase IC50
T1 construct: purchased Eurofins 14-953
Summary of the method: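 Caliper mobility-shift assay with 1 nM ATR, FAM-labeled RAD17 peptide […] and 5 mM ATP in HEPES pH 7.5 with 10 mM MnCl2, run 3 h at 28 °C and stopped with EDTA. Compounds were tested in 10-point 3-fold dilutions from 1 µM. IC50 was fitted from % inhibition of substrate conversion versus blank control.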

[2] = system: LoVo cells; experiment: LoVo cell proliferation assay (CellTiter-Glo); type: cell-based; settings: Homo sapiens, LoVo, 120 h, maximum concentration 10 µM, 9 concentrations
Summary of the method: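 LoVo cells, 2,000 per well, were treated after overnight attachment with 9-point 3-fold dilutions from 10 µM for 5 days at 37 °C. Viability was read by CellTiter-Glo luminescence. Inhibition % was taken relative to DMSO control, and IC50 came from the concentration–inhibition curve.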

T1 sequence (Q13535 whole entry): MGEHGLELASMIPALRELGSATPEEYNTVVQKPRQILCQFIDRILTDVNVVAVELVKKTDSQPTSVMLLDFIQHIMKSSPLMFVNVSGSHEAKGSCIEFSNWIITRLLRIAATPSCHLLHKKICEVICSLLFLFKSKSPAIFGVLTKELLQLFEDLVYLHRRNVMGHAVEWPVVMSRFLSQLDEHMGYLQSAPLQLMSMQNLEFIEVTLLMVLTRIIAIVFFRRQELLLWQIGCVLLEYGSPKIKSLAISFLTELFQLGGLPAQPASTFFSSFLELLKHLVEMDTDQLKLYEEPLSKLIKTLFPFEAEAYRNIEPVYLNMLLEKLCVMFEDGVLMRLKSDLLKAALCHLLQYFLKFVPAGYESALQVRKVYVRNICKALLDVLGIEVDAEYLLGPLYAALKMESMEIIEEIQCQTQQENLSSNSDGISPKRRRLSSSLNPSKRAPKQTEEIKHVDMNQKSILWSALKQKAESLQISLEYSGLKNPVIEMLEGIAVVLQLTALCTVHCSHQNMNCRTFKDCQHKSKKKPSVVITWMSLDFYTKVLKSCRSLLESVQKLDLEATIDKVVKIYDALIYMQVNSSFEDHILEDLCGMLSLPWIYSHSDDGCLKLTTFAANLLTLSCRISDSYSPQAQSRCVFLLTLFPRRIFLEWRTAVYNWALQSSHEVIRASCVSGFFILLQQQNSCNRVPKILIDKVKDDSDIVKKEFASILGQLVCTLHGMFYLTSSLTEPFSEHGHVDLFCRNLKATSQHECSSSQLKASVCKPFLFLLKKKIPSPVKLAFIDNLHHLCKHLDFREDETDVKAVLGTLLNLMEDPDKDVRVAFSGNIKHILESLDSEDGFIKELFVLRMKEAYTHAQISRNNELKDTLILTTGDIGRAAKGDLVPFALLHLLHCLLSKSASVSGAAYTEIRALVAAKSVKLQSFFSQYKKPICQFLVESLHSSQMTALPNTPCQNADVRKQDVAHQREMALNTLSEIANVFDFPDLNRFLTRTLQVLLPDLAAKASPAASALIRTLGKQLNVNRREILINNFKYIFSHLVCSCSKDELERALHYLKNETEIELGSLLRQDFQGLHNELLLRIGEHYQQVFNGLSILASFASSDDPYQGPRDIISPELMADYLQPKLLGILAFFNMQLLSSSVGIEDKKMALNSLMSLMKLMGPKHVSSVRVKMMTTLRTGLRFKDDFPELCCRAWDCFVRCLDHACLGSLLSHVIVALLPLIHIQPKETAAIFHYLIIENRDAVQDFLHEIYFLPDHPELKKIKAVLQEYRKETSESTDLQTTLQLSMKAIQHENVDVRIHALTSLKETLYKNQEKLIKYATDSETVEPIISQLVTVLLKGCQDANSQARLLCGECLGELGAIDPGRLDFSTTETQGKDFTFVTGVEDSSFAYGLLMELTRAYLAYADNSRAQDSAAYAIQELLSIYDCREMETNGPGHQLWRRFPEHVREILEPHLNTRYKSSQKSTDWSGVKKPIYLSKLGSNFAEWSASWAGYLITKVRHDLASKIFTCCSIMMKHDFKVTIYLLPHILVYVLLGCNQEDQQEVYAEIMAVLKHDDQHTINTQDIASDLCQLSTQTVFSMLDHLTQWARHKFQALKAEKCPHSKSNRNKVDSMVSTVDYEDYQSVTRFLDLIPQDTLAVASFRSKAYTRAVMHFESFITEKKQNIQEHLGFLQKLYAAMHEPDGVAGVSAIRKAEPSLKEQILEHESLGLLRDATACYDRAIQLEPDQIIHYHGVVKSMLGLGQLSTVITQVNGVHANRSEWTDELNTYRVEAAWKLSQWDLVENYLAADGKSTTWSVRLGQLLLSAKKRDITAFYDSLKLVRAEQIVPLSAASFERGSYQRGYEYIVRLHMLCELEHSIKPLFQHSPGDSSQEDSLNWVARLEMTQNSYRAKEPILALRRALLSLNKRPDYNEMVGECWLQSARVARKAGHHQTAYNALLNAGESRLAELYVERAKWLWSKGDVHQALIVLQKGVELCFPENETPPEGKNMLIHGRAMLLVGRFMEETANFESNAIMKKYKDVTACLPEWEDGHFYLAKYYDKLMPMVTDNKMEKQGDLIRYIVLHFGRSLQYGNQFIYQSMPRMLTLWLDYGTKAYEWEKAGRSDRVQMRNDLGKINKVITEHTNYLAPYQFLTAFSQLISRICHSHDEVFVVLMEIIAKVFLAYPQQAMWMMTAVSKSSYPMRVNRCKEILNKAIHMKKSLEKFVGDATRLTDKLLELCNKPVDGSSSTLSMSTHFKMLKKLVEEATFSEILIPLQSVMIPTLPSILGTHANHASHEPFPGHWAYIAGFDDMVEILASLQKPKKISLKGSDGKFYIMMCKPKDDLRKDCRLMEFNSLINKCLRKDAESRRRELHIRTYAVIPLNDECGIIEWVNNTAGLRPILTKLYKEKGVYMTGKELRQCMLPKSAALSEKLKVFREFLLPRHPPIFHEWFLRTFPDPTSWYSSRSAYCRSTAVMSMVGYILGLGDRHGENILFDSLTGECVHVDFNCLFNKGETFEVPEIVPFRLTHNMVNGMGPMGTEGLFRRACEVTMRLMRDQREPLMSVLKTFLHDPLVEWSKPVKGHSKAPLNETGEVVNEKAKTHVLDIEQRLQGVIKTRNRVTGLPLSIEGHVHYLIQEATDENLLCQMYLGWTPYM
T1 sequence (Q8WXE1 whole entry partner): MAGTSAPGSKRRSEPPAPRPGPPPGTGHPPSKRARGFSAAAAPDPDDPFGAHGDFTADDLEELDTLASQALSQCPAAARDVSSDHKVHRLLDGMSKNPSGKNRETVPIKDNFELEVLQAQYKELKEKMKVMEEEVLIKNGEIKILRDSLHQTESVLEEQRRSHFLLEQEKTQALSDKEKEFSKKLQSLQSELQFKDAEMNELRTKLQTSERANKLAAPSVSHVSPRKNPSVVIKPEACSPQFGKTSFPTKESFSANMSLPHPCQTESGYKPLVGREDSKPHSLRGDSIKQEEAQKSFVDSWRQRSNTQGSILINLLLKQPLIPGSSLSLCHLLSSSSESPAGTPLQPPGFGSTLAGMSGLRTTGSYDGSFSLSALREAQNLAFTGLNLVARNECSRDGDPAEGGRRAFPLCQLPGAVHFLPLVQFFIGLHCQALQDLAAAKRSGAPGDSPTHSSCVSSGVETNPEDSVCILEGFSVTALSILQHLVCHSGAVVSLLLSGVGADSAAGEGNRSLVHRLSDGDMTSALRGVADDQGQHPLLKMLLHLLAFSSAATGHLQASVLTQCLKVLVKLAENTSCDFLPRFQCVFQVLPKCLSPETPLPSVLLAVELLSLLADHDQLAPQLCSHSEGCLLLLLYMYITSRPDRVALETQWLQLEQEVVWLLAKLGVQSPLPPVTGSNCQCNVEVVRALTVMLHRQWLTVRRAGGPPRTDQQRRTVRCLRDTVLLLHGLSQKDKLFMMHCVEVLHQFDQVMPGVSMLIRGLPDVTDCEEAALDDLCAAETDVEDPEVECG

IC50 ([2]; LoVo cells, 2,000 cells per well, 5 days incubation, CellTiter-Glo, read-out: LoVo IC50) [nM]	Structure (SMILES)	IC50 [1] [nM]	IC50 ([2]; read-out: LoVo IC50 (nM), LoVo cells, 2,000 cells per well, 5 days incubation, CellTiter-Glo) [nM]
> 1000	C[C@@H]1COCCN1c1cc2c3c(n1)c(-c1cc[nH]n1)nn3CCN(C1CC(F)(F)C1)C2 [Compound 52, (R)-4-(7-(3,3-difluorocyclobutyl)-2-(1H-pyrazol-3-yl)-6,7,8,9-tetrahydro-1,3,7,9a-tetraazabenzo[cd]azulen-4-yl)-3-methylmorpholine]	10 to 100	
	CC(C)N1C(=O)CCc2nn(-c3cc[nH]n3)c3nc(N4CCOC[C@H]4C)cc1c23 [Compound 78, (R)-6-isopropyl-4-(3-methylmorpholino)-2-(1H-pyrazol-3-yl)-2,6,8,9-tetrahydro-7H-1,2,3,6-tetraazabenzo[cd]azulene-7-one]	< 10	< 100
